Where a name gives a salt, the structure may show the parent alone. Read-outs that look alike come from different tables or passages of the source.
Columns and labels:
[1] = tested on: SMN2 minigene (full length SMN2 minigene mRNA containing SMN2 exon 7); assay: SMN2 minigene mRNA splicing RT-qPCR assay in cultured cells; format: cell-based, human; conditions: for EC (1.5-fold): Homo sapiens, HEK293-H, read-out: EC1.5x for production of full length SMN2 mRNA
Description: The reverse transcription-quantitative PCR-based (RT-qPCR) assay is used to quantify the level of the full length SMN2 minigene mRNA containing SMN2 exon 7 in a HEK293H cell line stably transfected with said minigene and treated with a test compound.
Protocol. HEK293H cells stably transfected with the SMN2-A minigene construct described above (10,000 cells/well) are seeded in 200 μL of cell culture medium (DMEM plus 10% FBS, with 200 μg/mL hygromycin) in 96-well flat-bottom plates and the plate is immediately swirled to ensure proper dispersal of cells, forming an even monolayer of cells. Cells are allowed to attach for at least 4-6 hours. […] A solution of test compound (1 μL, 200× in DMSO) is added to each cell-containing well and the plate is incubated for 24 hours in a cell culture incubator (37° C., 5% CO2, 100% relative humidity). 2 replicates are prepared for each test compound concentration. The cells are then lysed in Cells-To-Ct lysis buffer and the lysate is stored at −80° C.
The combination of these three oligonucleotides detects only SMN1 or SMN2 minigenes (RT-qPCR) and will not detect endogenous SMN1 or SMN2 genes.
The SMN forward and reverse primers are used at final concentrations of 0.4 μM.
The SMN2-minigene GAPDH mix (15 μL total volume) is prepared by combining 7.5 μL of 2×RT-PCR buffer, 0.4 μL of 25×RT-PCR enzyme mix, 0.75 μL of 20×GAPDH primer-probe mix, 4.0075 μL of water, 2 μL of 10-fold diluted cell lysate, 0.06 μL of 100 μM SMN forward primer, 0.06 μL of 100 μM SMN reverse primer, and 0.225 μL of 100 μM SMN probe.
PCR is carried out at the following temperatures for the indicated time: Step 1: 48° C. (15 min); Step 2: 95° C. (10 min); Step 3: 95° C. (15 sec); Step 4: 60° C. (1 min); then repeat Steps 3 and 4 for a total of 40 cycles.
Each reaction mixture contains both SMN2-A minigene and GAPDH primers/probe sets (multiplex design), allowing simultaneous measurement of the levels of two transcripts.
Two SMN spliced products are generated from the SMN2 minigene. The first spliced product containing exon 7, corresponding to full length SMN2 mRNA, is called SMN2mini FL. The second one lacking exon 7 is called SMN2mini Δ7.
The amplification efficiency E is calculated from the slope of the amplification curve for SMN2mini FL and GAPDH individually. The abundances of SMN2mini FL and GAPDH are then calculated as […], where Ct is the threshold value for each amplicon. The abundance of SMN2mini FL is normalized to GAPDH abundance. The normalized SMN2mini FL abundance from test compound-treated samples is then divided by normalized SMN2mini FL abundance from vehicle-treated cells to determine the level of SMN2 FL mRNA relative to vehicle control.
An EC1.5x for production of full length SMN2 mRNA between >3 μM and ≤30 μM is indicated by one star (*), an EC1.5x between >1 μM and ≤3 μM is indicated by two stars (**), an EC1.5x between >0.3 μM and ≤1 μM is indicated by three stars (***), an EC1.5x between >0.1 μM and ≤0.3 μM is indicated by four stars (****) and an EC1.5x≤0.1 μM is indicated by five stars (*****).

Smn protein = Smn protein assay in cultured cells (SMN HTRF); format: cell-based, human
Description: The SMN HTRF (homogeneous time resolved fluorescence) assay is used to quantify the level of Smn protein in SMA patient fibroblast cells treated with test compounds.
Protocol. Cells are thawed and cultured in DMEM-10% FBS for 72 hours. Cells are trypsinized, counted and resuspended to a concentration of 25,000 cells/mL in DMEM-10% FBS. […] 1 μL of test compound solution is transferred to cell-containing wells and cells are incubated for 48 hours in a cell culture incubator (37° C., 5% CO2, 100% relative humidity). Triplicate samples are set up for each test compound concentration. After 48 hours, the supernatant is removed from the wells and 25 μL of the RIPA lysis buffer, containing protease inhibitors, is added to the wells and incubated with shaking at room temperature for 1 hour. 25 μL of the diluent is added and then 35 μL of the resulting lysate is transferred to a 384-well plate, where each well contains 5 μL of the antibody solution (1:100 dilution of anti-SMN d2 and anti-SMN kryptate in SMN reconstitution buffer). The plate is centrifuged for 1 minute to bring the solution to the bottom of the wells, then incubated overnight at room temperature. Fluorescence for each well of the plate at 665 nm and 620 nm is measured on an EnVision multilabel plate reader (Perkin-Elmer).
The normalized fluorescence signal is calculated for each sample, Blank and vehicle control well by dividing the signal at 665 nm by the signal at 620 nm. Normalizing the signal accounts for possible fluorescence quenching due to the matrix effect of the lysate. The ΔF value (a measurement of Smn protein abundance) for each sample well is calculated by subtracting the normalized average fluorescence for the Blank control wells from the normalized fluorescence for each sample well and then dividing this difference by the normalized average fluorescence for the Blank control wells. The resulting ΔF value for each sample well represents the Smn protein abundance from test compound-treated samples. The ΔF value for each sample well is divided by the ΔF value for the vehicle control wells to calculate the fold increase in Smn protein abundance relative to the vehicle control.
An EC1.5x for Smn protein expression between >3 μM and ≤10 μM is indicated by one star (*), an EC1.5x between >1 and ≤3 μM is indicated by two stars (**), an EC1.5x between >0.3 μM and ≤1 μM is indicated by three stars (***) and an EC1.5x≤0.3 μM is indicated by four stars (****).

[2] = HEK293H cells stably transfected with SMN2-A minigene, 24 hours, 7-point concentration curve, 1.5-fold relative to vehicle-treated cells
[3] = SMA patient fibroblast cells, 48 hours, 7-point concentration data, fold increase relative to vehicle control (SMN HTRF)

| Compound | maximum fold (Fold) increase of Smn protein (Smn protein; [3]) | EC (1.5-fold) [1, 2] [µM] | also measured |
| --- | --- | --- | --- |
| 3-(6-chloroimidazo[1,2-a]pyrimidin-2-yl)-7-(piperazin-1-yl)-2H-chromen-2-one [Compound 348] | * (maximum fold increase of ≤1.2) |  | EC1.5x for production of full length SMN2 mRNA [1, 2]: ** (between >1 μM and ≤3 μM) |
| 7-(1,4-diazepan-1-yl)-3-(6-methylimidazo[1,2-a]pyrazin-2-yl)-2H-chromen-2-one [Compound 477] | ***** (fold increase >1.65) |  | EC1.5x for production of full length SMN2 mRNA [1, 2]: ***** (EC1.5x≤0.1 μM); EC1.5x (concentration giving 1.5-fold Smn protein increase) (Smn protein; SMA Type 1 patient fibroblast cells (GM03813), 48 hours, 7-point concentration curve, SMN HTRF, concentration producing 1.5 times Smn protein vs DMSO vehicle control, read-out: EC1.5x for Smn protein expression): < 300 nM |
| 7-(2,5-diazabicyclo[2.2.2]oct-2-yl)-3-(pyrazolo[1,5-a]pyridin-2-yl)-2H-chromen-2-one [Compound 191] | ** (fold increase between >1.2 and ≤1.35) |  | EC1.5x for production of full length SMN2 mRNA [1, 2]: *** (between >0.3 μM and ≤1 μM) |
| O=c1oc2cc(OC3CCNC3)ccc2cc1-c1cn2cccnc2n1 (stereo in doubt) [Cpd 321, 3-(imidazo[1,2-a]pyrimidin-2-yl)-7-[(3R)-pyrrolidin-3-yloxy]-2H-chromen-2-one hydrochloride (1:2)] |  |  | EC (1.5-fold) ([1]; 24 h): 1 to 3 µM; maximum fold (Fold) increase of Smn protein (Smn protein): ** (key: *: maximum fold increase of ≤1.2; **: fold increase between >1.2 and ≤1.35; ***: fold increase between >1.35 and ≤1.5; ****: fold increase between >1.5 and ≤1.65; *****: fold increase >1.65) |
| O=C(O)C(F)(F)F.O=c1oc2cc(N3CCNCC3)ccc2cc1-c1nc2c(C(F)(F)F)cccc2o1 [Compound 1, 7-(piperazin-1-yl)-3[4-(trifluoromethyl)-1,3-benzoxazol-2-yl]-2H-chromen-2-one trifluoroacetate] | * (maximum fold increase of ≤1.2) | 0.3 to 1 |  |
| O=C(O)C(F)(F)F.O=c1oc2cc(N3CCNCC3)ccc2cc1-c1nc2cccc(C(F)(F)F)c2o1 [Compound 2, 7-(piperazin-1-yl)-3[7-(trifluoromethyl)-1,3-benzoxazol-2-yl]-2H-chromen-2-one trifluoroacetate] | * (maximum fold increase of ≤1.2) | 0.3 to 1 |  |
| Cc1cccc2oc(-c3cc4ccc(N5CCNCC5)cc4oc3=O)nc12.Cl [Compound 22, 3-(4-methyl-1,3-benzoxazol-2-yl)-7-(piperazin-1-yl)-2H-chromen-2-one hydrochloride] | * (maximum fold increase of ≤1.2) | 3 to 30 |  |
| O=c1oc2cc(N3CCNCC3)ccc2cc1-c1cn2ccccc2n1 [Compound 34, 3-(imidazo[1,2-a]pyridin-2-yl)-7-(piperazin-1-yl)-2H-chromen-2-one] | ** (fold increase between >1.2 and ≤1.35) | 0.3 to 1 |  |
| Cc1csc(-c2cc3ccc(N4CCNCC4)cc3oc2=O)n1 [Compound 37, 3-(4-methyl-1,3-thiazol-2-yl)-7-(piperazin-1-yl)-2H-chromen-2-one] | ** (fold increase between >1.2 and ≤1.35) |  | EC (1.5-fold) ([1]; 24 h): 1 to 3 µM |
| Cl.O=c1oc2cc(N3CCNCC3)ccc2cc1-c1nc2c(F)cccc2o1 [Compound 40, 3-(4-fluoro-1,3-benzoxazol-2-yl)-7-(piperazin-1-yl)-2H-chromen-2-one hydrochloride] | ** (fold increase between >1.2 and ≤1.35) | 1 to 3 |  |
| CN(C)CCN(C)c1ccc2cc(-c3nc4ccccc4o3)c(=O)oc2c1 [Compound 49, 3-(1,3-benzoxazol-2-yl)-7-{[2-(dimethylamino)ethyl](methyl)amino}-2H-chromen-2-one] | * (maximum fold increase of ≤1.2) | 3 to 30 |  |
| O=c1oc2cc(OC[C@@H]3CCCN3)ccc2cc1-c1nc2ccccc2s1 [Compound 56, 3-(1,3-benzothiazol-2-yl)-7-[(2S)-pyrrolidin-2-ylmethoxy]-2H-chromen-2-one] | * (maximum fold increase of ≤1.2) | 3 to 30 |  |
| O=c1oc2cc(N3CCNCC3)ccc2cc1-c1cn2cc(Cl)ccc2n1 [Compound 71, 3-(6-chloroimidazo[1,2-a]pyridin-2-yl)-7-(piperazin-1-yl)-2H-chromen-2-one] | ** (fold increase between >1.2 and ≤1.35) | 1 to 3 |  |
| O=c1oc2cc(N3CCNCC3)ccc2cc1-c1cc(C(F)(F)F)ccn1 [Compound 76, 7-(piperazin-1-yl)-3-[4-(trifluoromethyl)pyridin-2-yl]-2H-chromen-2-one] | * (maximum fold increase of ≤1.2) | 1 to 3 |  |
| O=c1oc2cc(N3CC4CC3CN4)ccc2cc1-c1nc2ccccc2o1 (stereo not drawn) [Compound 85, 3-(1,3-benzoxazol-2-yl)-7-(2,5-diazabicyclo[2.2.1]hept-2-yl)-2H-chromen-2-one] | * (maximum fold increase of ≤1.2) | 3 to 30 |  |
| CC1CN(c2ccc3cc(-c4nc5ccccc5o4)c(=O)oc3c2)C(C)CN1 (stereo not drawn) [Compound 86, 3-(1,3-benzoxazol-2-yl)-7-(2,5-dimethylpiperazin-1-yl)-2H-chromen-2-one] | * (maximum fold increase of ≤1.2) | 3 to 30 |  |
| O=c1oc2cc(N3CCNCC3)ccc2cc1-c1cn2cc(F)ccc2n1 [Compound 103, 3-(6-fluoroimidazo[1,2-a]pyridin-2-yl)-7-(piperazin-1-yl)-2H-chromen-2-one] | ** (fold increase between >1.2 and ≤1.35) | 0.3 to 1 |  |
| Cc1nc2ccc(-c3cc4ccc(C5=CCNCC5)cc4oc3=O)nn2c1C1=CCNCC1 [Cpd 845, 3-[2-methyl-3-(1,2,3,6-tetrahydropyridin-4-yl)imidazo[1,2-b]pyridazin-6-yl]-7-(1,2,3,6-tetrahydropyridin-4-yl)-2H-chromen-2-one] | * (maximum fold increase of ≤1.2) |  |  |
